Test results reported in PubChem BioAssay (NCI).
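Tested at 5 concentrations; 48 h exposure; 96-well plates; endpoints linearly interpolated, else capped at highest concentration. TGI is the concentration that stops growth completely.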

Columns and labels:
Assay in all cases: inhibition of tumour cell growth, NCI panel, 48 h
NCI-H522 lung = tested on: NCI-H522 lung
SNB-75 CNS = tested on: SNB-75 CNS
NCI-H23 lung = tested on: NCI-H23 lung
RPMI-8226 leukemia = tested on: RPMI-8226 leukemia
CCRF-CEM leukemia = tested on: CCRF-CEM leukemia
M14 melanoma = tested on: M14 melanoma
HOP-62 NSCLC = tested on: HOP-62 NSCLC
ACHN renal = tested on: ACHN renal
HL-60(TB) leukemia = tested on: HL-60(TB) leukemia
SK-MEL-28 melanoma = tested on: SK-MEL-28 melanoma
T-47D breast = tested on: T-47D breast
OVCAR-4 ovarian = tested on: OVCAR-4 ovarian
HCT-116 colon = tested on: HCT-116 colon
TK-10 renal = tested on: TK-10 renal
NCI-H460 lung = tested on: NCI-H460 lung
MDA-MB-435 = tested on: MDA-MB-435
DU-145 prostate = tested on: DU-145 prostate
MDA-MB-231 breast = tested on: MDA-MB-231 breast
786-0 renal = tested on: 786-0 renal
CAKI-1 renal = tested on: CAKI-1 renal
K-562 leukemia = tested on: K-562 leukemia
UO-31 renal = tested on: UO-31 renal
OVCAR-8 ovarian = tested on: OVCAR-8 ovarian
HCT-15 colon = tested on: HCT-15 colon
UACC-257 melanoma = tested on: UACC-257 melanoma
A498 renal = tested on: A498 renal
SK-MEL-2 melanoma = tested on: SK-MEL-2 melanoma
MDA-N = tested on: MDA-N
OVCAR-3 ovarian = tested on: OVCAR-3 ovarian
PC-3 prostate = tested on: PC-3 prostate
LOX IMVI melanoma = tested on: LOX IMVI melanoma
IGROV1 ovarian = tested on: IGROV1 ovarian
SN12C renal = tested on: SN12C renal
UACC-62 melanoma = tested on: UACC-62 melanoma
SR leukemia = tested on: SR leukemia
A549 NSCLC = tested on: A549 NSCLC
U251 CNS = tested on: U251 CNS
SW-620 colon = tested on: SW-620 colon
HT29 colon = tested on: HT29 colon
MOLT-4 leukemia = tested on: MOLT-4 leukemia
HCC-2998 colon = tested on: HCC-2998 colon
SNB-19 CNS = tested on: SNB-19 CNS
MALME-3M melanoma = tested on: MALME-3M melanoma
NCI-H226 lung = tested on: NCI-H226 lung
SK-MEL-5 melanoma = tested on: SK-MEL-5 melanoma
SF-268 CNS = tested on: SF-268 CNS
OVCAR-5 ovarian = tested on: OVCAR-5 ovarian

In the case of `O=C(N=Nc1cccc(Cl)c1)NNc1cccc(Cl)c1`, the TGI (NCI-H522 lung) is reported as 42.6 µM, the TGI (SNB-75 CNS) is reported as greater than 100 µM and the TGI (NCI-H23 lung) is reported as greater than 100 µM. For the same molecule, the TGI (RPMI-8226 leukemia) was 56.8 µM, the TGI (CCRF-CEM leukemia) was 48.5 µM and the TGI (M14 melanoma) was 32.2 µM. For the same molecule, the TGI (HOP-62 NSCLC) was 22.2 µM, the TGI (ACHN renal) was 50.8 µM and the TGI (HL-60(TB) leukemia) was 41.7 µM. For the same molecule, the TGI (SK-MEL-28 melanoma) was 41 µM, the TGI (T-47D breast) was greater than 100 µM and the TGI (OVCAR-4 ovarian) was 52.6 µM. It also gave a TGI (HCT-116 colon) of 21.2 µM, a TGI (TK-10 renal) of 66.6 µM and a TGI (NCI-H460 lung) of 34.2 µM. For the same molecule, the TGI (MDA-MB-435) was 26.5 µM, the TGI (DU-145 prostate) was 41.8 µM and the TGI (MDA-MB-231 breast) was 74.6 µM. It also gave a TGI (786-0 renal) of 28.4 µM, a TGI (CAKI-1 renal) of 91.1 µM and a TGI (K-562 leukemia) of 39.6 µM. The TGI (UO-31 renal) was 45.5 µM, the TGI (OVCAR-8 ovarian) was 50.1 µM and the TGI (HCT-15 colon) was 75.7 µM. For the same molecule, the TGI (UACC-257 melanoma) was 54.3 µM, the TGI (A498 renal) was 44.9 µM and the TGI (SK-MEL-2 melanoma) was 24.6 µM. It also gave a TGI (MDA-N) of 31.2 µM, a TGI (OVCAR-3 ovarian) of 29.9 µM and a TGI (PC-3 prostate) of 36 µM. For the same molecule, the TGI (LOX IMVI melanoma) was 26.8 µM, the TGI (IGROV1 ovarian) was 43.3 µM and the TGI (SN12C renal) was 35.9 µM. It also gave a TGI (UACC-62 melanoma) of 24.1 µM, a TGI (SR leukemia) of 90.7 µM and a TGI (A549 NSCLC) of 94.6 µM. For the same molecule, the TGI (U251 CNS) was 40 µM, the TGI (SW-620 colon) was 35.5 µM and the TGI (HT29 colon) was 43.5 µM. The TGI (MOLT-4 leukemia) was 42.7 µM, the TGI (HCC-2998 colon) was 28.9 µM and the TGI (SNB-19 CNS) was greater than 100 µM. For the same molecule, the TGI (MALME-3M melanoma) was 39.6 µM, the TGI (NCI-H226 lung) was greater than 100 µM and the TGI (SK-MEL-5 melanoma) was 38.4 µM. For the same molecule, the TGI (SF-268 CNS) was 73.6 µM and the TGI (OVCAR-5 ovarian) was 46.5 µM.
